# Laboratory results taken from patent US6830885B1, “Nucleic acid molecule, method and kit for selecting a nucleic acid having a desired feature” (priority 2000, dated 2004).
# Where two headings read alike, the source gives them in different places.
# How the values were obtained:
# [1] = tested on: Sindbis viral particles; assay: Virus production from BHK-21 cells infected with VB222-derived Sindbis viral particles under drug treatment; assay type: cell-based; conditions: multiplicity of infection 0.05, viral particles collected 6 hours later
# Experimental: The viral genome was transcribed from plasmid VB222. The exogenous nucleic acid encodes GFP to facilitate detection of transfected and/or infected cells. BHK-21 cells were transfected with said viral genome and viral particles were collected 34 hours later. These viral particles were tittered by standard plaque assay and used to infect BHK-21 cells at a multiplicity of infection of 0.05. The medium was changed one hour post-infection. Drugs were added one hour post-infection at a concentration of 200 nM (okadaic acid) or 30 μg/ml (cerulenin) and viral particles were collected 6 hours later. […] Treatment with the drug could be maintained while propagating the viral particles, thereby further decreasing the number of viral particles produced from viral genomes expressing an exogenous nucleic acid encoding a peptide or protein that is not involved in drug-resistance.
# [2] = tested on: Sindbis-infected BHK-21 cells; conditions: cited from earlier work
Compound,decrease in virus production ([1]; cerulenin 30 μg/ml added one hour post-infection),production of viral particles ([2]; 30 μg/ml),decrease in virus production ([1]; okadaic acid 200 nM added one hour post-infection),production of viral particles ([2]; 200 nM)
C/C=C/C/C=C/CCC(=O)[C@H]1O[C@H]1C(N)=O [cerulenin],39 fold,impairs production of viral particles,,
C=C1[C@@H](O)[C@@H]2O[C@]3(CC[C@H](/C=C/[C@@H](C)[C@@H]4CC(C)=C[C@@]5(O[C@H](C[C@@](C)(O)C(=O)O)CC[C@H]5O)O4)O3)CC[C@H]2O[C@@H]1[C@@H](O)C[C@H](C)[C@H]1O[C@@]2(CCCCO2)CC[C@H]1C [okadaic acid],,,13 fold,impairs production of viral particles
